Experimental data reported in US20260374767A1, “FUSED HETEROCYCLIC COMPOUNDS AND USES THEREOF” (Chengdu Zenitar Biomedical Technology Co., Ltd., priority 2022, published 2026).

Tests used:
[1] = Pharmacokinetic evaluation in Balb/c mice; type: in vivo; conditions: 1 mg/kg orally
Experimental: Pharmacokinetic Evaluation of Compound in Balb/c Mice
(§2) Experimental purpose: To learn pharmacokinetic profiles of compounds.
Experimental scheme: The pharmacokinetic profile of the compound was investigated by means of administering it intravenously (1 mg kg^−1) and orally (1 mg kg^−1) to Balb/c mice.
Sample preparation: About 0.2 mg of the compound was dissolved in 10 μL DMSO, then a sodium chloride injection was added to make a 0.1 mg mL^−1 solution of the compound for administration.
Three mice were administered the compound intravenously (IV) at a dose of 1 mg kg^−1, and the other three were administered the compound orally (PO) at the same dose. […] The plasma concentration of the drug was quantitatively analyzed with the LC-MS/MS method, and pharmacokinetic parameters were calculated, including the time to peak concentration (Cmax), area under the concentration-time curve (AUC(0-t)), half-life (T1/2), clearance (CL), volume of distribution at steady state (Vdss), and bioavailability (F).

[2] = Pharmacokinetic evaluation in SD rat; type: in vivo; conditions: SD rats
Experimental: Pharmacokinetic Evaluation of Compound in SD Rat
as §2
Experimental scheme: The pharmacokinetic profile of the compound was investigated by oral intravenous administration in SD rats.
Experimental procedure: The compound, a small amount of DMSO and a sodium chloride injection were added to prepare the final solution for administration. The compound was orally administered to 6 male SD rats. […] The supernatant was collected and transferred into a sample vial for assay. Range of standard curve: 10-10,000 ng mL^−1.

[3] = tested on: DLD-1 cells; test: Anti-proliferative activity assay, BRCA wild-type DLD-1 cells (CCK8); type: cell-based; conditions: Homo sapiens, 72 h + 96 h
From the text: (§1) 2. Anti-Proliferative Activity Assay of Cell:

[4] = tested on: MDA-MB-436 cells; test: Anti-proliferative activity assay, BRCA-mutated MDA-MB-436 cells (CCK8); type: cell-based; conditions: Homo sapiens, MDA-MB-436, BRCA-mutated, 72 h + 96 h
From the text: as §1

[5] = tested on: gastric cancer PDX; test: In-vivo pharmacodynamic study on PDX gastric cancer mice model; set-up: species or system patient-derived tumor in mice
Experimental: 7. In-Vivo Pharmacodynamic Study of Compound 6 on PDX Gastric Cancer Mice model
Experimental procedure: Tumor tissues from gastric cancer patients were used to establish a stable passaged tumor-bearing mice model. In this study, tumor fragments from mice that had been stably passaged three times were used for subcutaneous inoculation. Eight groups were divided for the experiment, with 6 mice in each group. The negative control group (Control) received normal saline at 0.2 mL per mice per administration, given orally once per day; the carboplatin control group (Carboplatin, Car) received 20 mg/kg at 0.2 mL per mice per administration, administered via intraperitoneal injection once every 7 days.

[6] = tested on: breast cancer MDA-MB-436; test: In-vivo pharmacodynamic study on subcutaneous xenograft tumor model of breast cancer MDA-MB-436; set-up: species or system human tumor cells in NOD/SCID mice
Experimental: Strain: NOD/SCID; Grade: SPF; Source: Beijing Vitron River Bio-technology Co., Ltd.
The cells were washed 3 times with pre-cooled PBS, centrifuged at 300 g for 10 min, collected, re-suspended in PBS, and counted with a blood cell counting chamber, and the cell concentration was adjusted. After cell collection, the cell suspension was pre-cooled on ice. 100 μL of the cell suspension was administered via subcutaneous injection into the dorsal flank of the mice, and the grouped treatment was started when the tumor volume reached 200-300 mm^3.
Animal assay: all viable experimental animals scheduled for assay; Assay time: All animals were weighed before the modeling for test grouping. After modeling, the mice were weighed once every 2 days, and the weight change of the mice was recorded in real time. Effective criteria: tumor volume (TV), relative tumor volume (RTV) and relative tumor growth rate of subcutaneously implanted tumor model. […] The calculation formula of tumor volume (TV) was: TV (mm^3)=a×b2×0.5, where a and b were the long diameter and short diameter, respectively.
The evaluation index for anti-tumor activity was the relative tumor growth rate T/C (%), and the calculation formula was as follows: […]
Where, TRTV is relative tumor volume of the treatment group; CRTV is relative tumor volume of the negative control group. […] The tumor inhibition rate (%) was calculated by the formula below: […]
All raw data within the facility were collected manually according to the experimental scheme and the relevant guidelines of the research institution, or gathered by using a data acquisition system. Manually collected data can be transcribed into software such as Excel for analysis and reporting. The data from each group were quantitative, and the experimental data for each group of animals in the tables were expressed as mean±standard deviation (Mean±SD). In the figures, the experimental data ware described as mean±standard error of the mean (Mean±SEM). Statistical analysis, including t-tests and survival analysis, was performed by using the software such as EXCEL and GraphPad Prism.
After 24 days of administration, the tumor-bearing mice were anesthetized and euthanized. The tumor tissues were dissected, weighed, and photographed, and the tumor inhibition rate was calculated.

[7] = tested on: breast cancer MDA-MB-436; test: Challenge experiment on subcutaneous xenograft tumor model of breast cancer MDA-MB-436 (large-volume tumors)
Experimental: Each group consisted of 5 mice and was administered orally once per day. The body weight of the mice was measured every 2 days, and the length and width of the tumors with a vernier caliper.

[8] = Body weight in MDA-MB-436 xenograft study; type: in vivo, NOD/SCID mice; conditions: for Body weight X ± SD, End: 24 days
Experimental: Animal assay: all viable experimental animals scheduled for assay; Assay time: All animals were weighed before the modeling for test grouping. After modeling, the mice were weighed once every 2 days, and the weight change of the mice was recorded in real time. Effective criteria: tumor volume (TV), relative tumor volume (RTV) and relative tumor growth rate of subcutaneously implanted tumor model. The long diameter and short diameter of the tumor was measured with vernier calipers every 2 days, and the anti-tumor effects of the tested drug was dynamically observed. The calculation formula of tumor volume (TV) was: TV (mm^3)=a×b2×0.5, where a and b were the long diameter and short diameter, respectively.
Each group consisted of 6 mice, all of which are administered orally once daily. […] After 24 days of administration, the tumor-bearing mice were anesthetized and euthanized. The tumor tissues were dissected, weighed, and photographed, and the tumor inhibition rate was calculated.

[9] = tested on: SUM14PT; test: In-vivo pharmacodynamic study on subcutaneous xenograft tumor model of breast cancer SUM14PT; set-up: species or system nude mice
Experimental: Experimental procedure: In this study, a mice model was established by subcutaneously inoculating SUM14PT tumor cells. Eight groups were divided for the experiment, with 6 mice in each group. The negative control group (Control) received normal saline at 0.2 mL per mice per administration, given orally once per day; the carboplatin control group (Carboplatin, Car) received 20 mg/kg at 0.2 mL per mice per administration, administered via intraperitoneal injection once every 7 days.

[10] = 0.03 mg/kg orally once daily, 24 days
[11] = 0.1 mg/kg orally once daily, 24 days
[12] = 0.3 mg/kg orally once daily, 24 days

In the case of [2H]C([2H])([2H])C([2H])([2H])c1cc2ncc(CN3CC=C(c4ccc(C(=O)NC)nc4)CC3)cc2[nH]c1=O [Compound 6, 1′-((7-(ethyl-d5)-6-oxo-5,6-dihydro-1,5-naphthyridin-3-yl)methyl)-N-methyl-1′,2′,3′,6′-tetrahy dro-[3,4′-bipyridine]-6-carboxamide], the “Cmax, comparison with AZD5305 and compounds 1, 2, 3, 15, 21” value [1] is reported as “superior to that of the reference compound 5305, as well as compounds 1, 2, 3, 15, and 21”, the “Cmax, comparison with AZD5305, compound 1 and compound 21” value [2] is reported as “superior to those of the reference compound AZD5305, compound 1 and compound 21” and the IC50 [3] is reported as over 10 µM. The IC50 [4] was 0.6 nM, the “inhibition of tumor growth in gastric cancer PDX model” value ([5]; 3 mg/kg p.o. combined with carboplatin 20 mg/kg i.p.) was “significantly inhibit tumor growth” and the “inhibitory effect on gastric cancer PDX model” value ([5]; combined with carboplatin (20 mg/kg i.p. once every 7 days), 0.3, 1, 3 mg/kg p.o.) was “dose-dependent inhibitory effect”. The Tumor inhibition rate [6, 10] was 49.77%, the “Tumor weight X ± SD” value [6, 10] was 1.09 ± 0.29 g and the “Tumor volume X ± SD, End” value [6, 10] was 739.4 ± 308.7 mm^3. For the same molecule, the “Tumor volume X ± SD, Start” value ([6]; 0.03 mg/kg orally once daily) was 275.0 ± 68.1 mm^3, the Tumor inhibition rate [6, 11] was 86.73% and the “Tumor weight X ± SD” value [6, 11] was 0.29 ± 0.09 g. The “Tumor volume X ± SD, End” value [6, 11] was 228.0 ± 75.9 mm^3, the “Tumor volume X ± SD, Start” value ([6]; 0.1 mg/kg orally once daily) was 274.7 ± 73.8 mm^3 and the “tumor inhibition effect, comparison with AZD5305, compound 1 and Olaparib” value ([6]; 0.1 mg/kg vs same dose of AZD5305 and compound 1, vs Olaparib 100 mg/kg) was “superior to that of the reference compound AZD5305 and the compound 1 at the same dose, and significantly better than that of the reference drug Olaparib group (100 mg/kg)”. The Tumor inhibition rate [6, 12] was 95.83%, the “Tumor weight X ± SD” value [6, 12] was 0.09 ± 0.08 g and the “Tumor volume X ± SD, End” value [6, 12] was 71.0 ± 62.5 mm^3. The “Tumor volume X ± SD, Start” value ([6]; 0.3 mg/kg orally once daily) was 281.9 ± 67.4 mm^3, the complete tumor regression ([6]; 0.3 mg/kg, at the end of treatment) was 2/6 and the “dose dependence among low, medium and high dose groups” value ([6]; 0.03, 0.1, 0.3 mg/kg, P<0.001, P<0.01) was “significant dose-dependent differences”. For the same molecule, the “inhibitory effects on tumor growth compared to blank control group” value ([6]; 24 days, all dose groups) was “significant inhibitory effects on tumor growth”, the “rate of tumor regression, comparison with compounds 1 and 21” value ([7]; 1 mg/kg orally once per day) was “faster rate of tumor regression compared to the compounds 1 and 21” and the “tumor regression in large-volume tumors” value ([7]; 1 mg/kg orally once per day) was “complete regression of tumors”. The “in-vivo anti-tumor efficacy, comparison with compounds 1 and 21” value ([7]; 1 mg/kg, same dose) was “stronger in-vivo anti-tumor efficacy than compounds 1 and 21”, the “Body weight X ± SD, End” value ([8]; 0.03 mg/kg orally once daily) was 21.6 ± 0.7 g and the “Body weight X ± SD, Start” value ([8]; 0.03 mg/kg orally once daily) was 22.6 ± 0.7 g. The “Body weight X ± SD, End” value ([8]; 0.1 mg/kg orally once daily) was 21.6 ± 0.7 g, the “Body weight X ± SD, Start” value ([8]; 0.1 mg/kg orally once daily) was 22.3 ± 1.0 g and the “Body weight X ± SD, End” value ([8]; 0.3 mg/kg orally once daily) was 22.0 ± 0.9 g. The “Body weight X ± SD, Start” value ([8]; 0.3 mg/kg orally once daily) was 22.3 ± 0.8 g, the “therapeutic efficacy in combination with carboplatin, compared to Olaparib plus carboplatin” value ([9]; 1 mg/kg orally once daily + carboplatin vs Olaparib 100 mg/kg + carboplatin) was “better therapeutic efficacy than Olaparib” and the “anti-tumor efficacy, monotherapy, compared to Olaparib” value ([9]; 0.3 and 1 mg/kg orally once daily vs Olaparib 100 mg/kg orally once daily) was “better anti-tumor efficacy compared to Olaparib”.
